Reference: PubChem BioAssay (NCI)
Where “and” joins values, the source holds several entries; their conditions need not be identical. Equal entries are not always repeated.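 All cell lines were grown in 96-well plates and treated with compound for 48 hours. At the GI50, growth is halved. TGI marks complete inhibition of growth.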

Experiments:
Experiment in all cases: NCI-60 cell line screen, 48 h
U251 CNS = tested on: U251 CNS
HCC-2998 colon = tested on: HCC-2998 colon
IGROV1 ovarian = tested on: IGROV1 ovarian
RXF 393 renal = tested on: RXF 393 renal
786-0 renal = tested on: 786-0 renal
MOLT-4 leukemia = tested on: MOLT-4 leukemia
OVCAR-3 ovarian = tested on: OVCAR-3 ovarian
NCI-H23 lung = tested on: NCI-H23 lung
NCI-H226 lung = tested on: NCI-H226 lung
NCI/ADR-RES ovarian = tested on: NCI/ADR-RES ovarian

SMILES	TGI (U251 CNS)	TGI (HCC-2998 colon)	TGI (IGROV1 ovarian)	TGI (RXF 393 renal)	TGI (786-0 renal)	TGI (MOLT-4 leukemia)	TGI (OVCAR-3 ovarian)	TGI (NCI-H23 lung)	TGI (NCI-H226 lung)	TGI (NCI/ADR-RES ovarian)	GI50 (HCC-2998 colon)	GI50 (IGROV1 ovarian)	GI50 (RXF 393 renal)	GI50 (NCI/ADR-RES ovarian)	GI50 (NCI-H23 lung)	GI50 (NCI-H226 lung)	GI50 (U251 CNS)	GI50 (MOLT-4 leukemia)	GI50 (OVCAR-3 ovarian)
O=C(CN(c1ccccc1)c1ccccc1)N1c2ccccc2C2C=CC=CC21 (configuration not stated)	> 56.5 µM	22.7 µM	47.3 µM	> 54.7 µM	56.3 µM	> 22.6 µM	44.6 µM	53.5 µM	44.6 µM										
O=C(Nc1ccccc1F)c1cc2ccc(O)cc2oc1=Nc1ccccc1F	3.63 µM	8.04 µM	4.13 µM		3.34 µM	6.11 µM	3.83 µM	4.52 µM		5.93 µM									
Cc1ccc([N+](=O)[O-])cc1N=NC(=O)NNc1cc([N+](=O)[O-])ccc1C	97.6 µM	58 µM		66.6 µM		41 µM	39.9 µM	> 100 µM		> 100 µM									
CC1CN=C(N(C(=O)Nc2ccc(F)c(Cl)c2)c2ccccc2)S1 (configuration not stated)	50.5 µM		> 100 µM		56 µM	62.2 µM	> 100 µM	52 µM		43 µM									
Cc1c(N2C(=O)C(Cl)C2c2ccc(Cl)cc2)c(=O)n(-c2ccccc2)n1C (configuration not stated)	> 100 µM		> 100 µM	> 100 µM	> 100 µM	> 100 µM	> 100 µM	85.1 µM	> 100 µM	> 100 µM									
COc1ccc(-c2c3c([nH]c(=S)c2C#N)CC(C)(C)CC3=O)cc1	> 100 µM	> 100 µM	> 100 µM	> 100 µM	> 100 µM	> 100 µM	> 100 µM	> 100 µM	> 100 µM										
CCN(CC)CCCNC(=O)c1ccc([N+](=O)[O-])cc1O	> 100 µM	> 100 µM	> 100 µM	> 100 µM	> 100 µM	> 100 µM	> 100 µM	> 100 µM	> 100 µM										
O=C(NC(COC(=O)C(Cc1ccccc1)NC(=O)c1ccccc1)Cc1ccccc1)c1ccccc1 (configuration not stated)	> 50 µM	> 50 µM	> 50 µM			> 50 µM	> 50 µM	> 50 µM											
Nc1nc(N)c(N=O)c(Nc2ccc(Br)cc2)n1	59 µM	> 100 µM	39.4 µM		> 100 µM		79.3 µM	> 100 µM	92.7 µM										
COc1cc2nc(-c3cccs3)oc(=O)c2cc1OC	> 100 µM		> 100 µM	> 100 µM	> 100 µM	> 100 µM	> 100 µM	> 100 µM	> 100 µM	> 100 µM									
O=c1ccn(C2OC(CO)C(P(=O)(O)O)C2O)c(=O)[nH]1 (configuration not stated)	> 100 µM	> 100 µM	> 100 µM	> 100 µM	> 100 µM	> 100 µM	> 100 µM	> 100 µM	> 100 µM										
N=C(N)c1ccc(-c2ccc(-c3cccs3)s2)cc1		2.17 µM	3.53 µM	35.5 µM				4.86 µM	33 µM	4.49 µM	0.747 µM	1.84 µM	13.9 µM	1.94 µM	1.98 µM	4.03 µM			
COc1cc2c(cc1OC)[C@H]1CN3CCC[C@H]3C=C1c1ccc(OC)c(O)c1-2	1.25 µM	0.0149 µM and 0.0736 µM	0.00323 µM and 0.0137 µM	0.0437 µM	0.0169 µM			0.00184 µM	0.0102 µM										
O=C(CNc1c(Cl)cccc1Cl)NC1C=Cc2ccc(S(=O)(=O)Nc3c(Cl)cccc3Cl)cc2C1=O (configuration not stated)	> 100 µM	> 100 µM	> 100 µM		> 100 µM	> 100 µM	> 100 µM	> 100 µM	> 100 µM	> 100 µM									
CCOC(=O)C1(C(=O)OCC)COS(=O)OC1	> 100 µM	> 100 µM		32.6 µM		56.4 µM	42.1 µM	> 100 µM	40.6 µM	> 100 µM									
O=C1NCCS(=O)(=O)N[C@@H](CC2=CC=CCC2)C(=O)N2CCCC12 (some centres not stated)	> 100 µM	> 100 µM	> 100 µM	> 100 µM	> 100 µM	> 100 µM	> 100 µM	> 100 µM	> 100 µM										
O=C1Sc2ccccc2C(=O)N2CSCC12 (configuration not stated)	> 100 µM	> 100 µM	> 100 µM	> 100 µM	> 100 µM	> 100 µM	> 100 µM	> 100 µM	> 100 µM										
NC(CC1=CS(=O)(=O)c2ccc(Cl)cc21)C(=O)O (configuration not stated)	> 100 µM		> 100 µM	> 100 µM	> 100 µM	> 100 µM	> 100 µM	> 100 µM	> 100 µM	> 100 µM									
C=Cc1ccc(C)[n+](C[Si](C)(C)O[Si](C)(C)C[n+]2cc(C=C)ccc2C)c1	> 100 µM	> 100 µM	> 100 µM	> 100 µM	> 100 µM	> 100 µM	> 100 µM	> 100 µM	> 100 µM										
COc1cc2cc(Oc3ccc(NC(=O)c4cc(C(F)(F)F)cc(C(F)(F)F)c4)cc3)c(C)nc2cc1OC	> 50 µM	> 50 µM	> 50 µM	> 50 µM		> 50 µM	> 50 µM	> 50 µM	> 50 µM	> 50 µM	> 50 µM	4.63 µM	2.93 µM	2.61 µM	2.71 µM	6.2 µM	2.64 µM	3.71 µM	1.96 µM
O=c1[nH]cnc(NC2C=C(CO)C(O)C2O)c1[N+](=O)[O-] (configuration not stated)	> 100 µM	> 100 µM	> 100 µM	> 100 µM	> 64.3 µM	> 100 µM	> 100 µM	> 100 µM	> 100 µM										
COc1nc2ncc([C@@H](OC(C)=O)[C@@H](COC(C)=O)OC(C)=O)nc2c(=O)[nH]1	> 100 µM		> 100 µM	> 100 µM	> 100 µM	> 100 µM	> 100 µM		> 100 µM	> 100 µM								> 100 µM and 49.9 µM	
